ChEMBL document CHEMBL1144860, “Spermicidal bacteriocins: lacticin 3147 and subtilosin A” (2008)
Calls of active or inactive are those of the source. No cut-off for these calls is given here.

Assays:
Spermatozoa [1] = assay: Spermicidal activity against boar sperm at 50 ug/mL assessed as time required for sperm death; assay type: functional, cell-based; conditions: Sus scrofa
Spermatozoa [2] = assay: Spermicidal activity against rat sperm at 200 ug/mL assessed as time required for sperm death; assay type: functional
Spermatozoa [3] = assay: Spermicidal activity against bovine spermatozoa at 800 ug/mL assessed as time required for sperm death; assay type: functional, Bos taurus
Spermatozoa [4] = assay: Spermicidal activity against horse sperm at 800 ug/mL assessed as time required for sperm death; assay type: functional, Equus caballus
Spermatozoa [5] = assay: Spermicidal activity against boar sperm at 200 ug/mL assessed as time required for sperm death; assay type: functional, Sus scrofa

Compound | Activity (Spermatozoa [1]) | Time (Spermatozoa [2]) [min] | Time (Spermatozoa [3]) [min] | Time (Spermatozoa [4]) [min] | Time (Spermatozoa [5]) [min]
C/C=C(\NC(=O)C(=O)CC)C(=O)N1CCC[C@H]1C(=O)N[C@@H](C)C(=O)N/C(=C\C)C(=O)N1CCC[C@H]1C(=O)N[C@@H](C)C(=O)N[C@H](C(=O)N[C@H](C)C(=O)N[C@H](C(=O)N[C@@H](CC(C)C)C(=O)N[C@H](C)C(=O)N[C@@H](C)C(=O)N[C@@H](Cc1ccc(O)cc1)C(=O)N[C@H](C(=O)N[C@H]1CSC[C@H](C(=O)N2CCC[C@H]2C(=O)N[C@H]2C(=O)N[C@@H]([C@@H](C)O)C(=O)N[C@@H](CCCCN)C(=O)N[C@H](C(=O)N[C@H]3C(=O)N[C@@H](CCCNC(=N)N)C(=O)N[C@@H](C)C(=O)N[C@@H](C(=O)O)CSC3C)CSC2C)NC(=O)[C@H]([C@@H](C)O)NC(=O)[C@H](CC(N)=O)NC(=O)[C@H]([C@@H](C)O)NC1=O)[C@@H](C)CC)[C@@H](C)CC)[C@@H](C)CC (stereo not given in full) | Active | – | – | – | –
C/C=C(\NC(=O)C(=O)CC)C(=O)N1CCC[C@H]1C(=O)N[C@@H](C)C(=O)N/C(=C\C)C(=O)N1CCC[C@H]1C(=O)N[C@@H](C)C(=O)N[C@H](C(=O)N[C@H](C)C(=O)N[C@H](C(=O)N[C@@H](CC(C)C)C(=O)N[C@H](C)C(=O)N[C@@H](C)C(=O)N[C@@H](Cc1ccc(O)cc1)C(=O)N[C@H](C(=O)N[C@@H]1CSC[C@@H](C(=O)N2CCC[C@H]2C(=O)N[C@H]2C(=O)N[C@@H]([C@@H](C)O)C(=O)N[C@@H](CCCCN)C(=O)N[C@H](C(=O)N[C@H]3C(=O)N[C@@H](CCCNC(=N)N)C(=O)N[C@@H](C)C(=O)N[C@H](C(=O)O)CSC3C)CSC2C)NC(=O)[C@H]([C@@H](C)O)NC(=O)[C@H](CC(N)=O)NC(=O)[C@H]([C@@H](C)O)NC1=O)[C@@H](C)CC)[C@@H](C)CC)[C@@H](C)CC (stereo not given in full) | – | 2 | 2.5 | 4.8 | 1.8
C/C=C(\NC(=O)[C@H](CC(N)=O)NC(=O)/C(=C\C)NC(=O)[C@H](C)NC(=O)[C@H](C)N)C(=O)N[C@@H](Cc1ccccc1)C(=O)N[C@H](C)C(=O)N[C@@H](CC(C)C)C(=O)N[C@@H]1CSC[C@H](C(=O)N[C@H]2C(=O)N[C@@H](CC(C)C)C(=O)N[C@H]3C(=O)N[C@@H](Cc4cnc[nH]4)C(=O)N[C@@H](CCC(=O)O)C(=O)N[C@@H](CCS[C@H]2C)C(=O)N[C@@H](CCSC)C(=O)N[C@@H](C)C(=O)N[C@@H](Cc2c[nH]c4ccccc24)C(=O)N[C@H](C(=O)N[C@@H](CCCCN)C(=O)O)CSC3C)NC(=O)[C@H](Cc2c[nH]c3ccccc23)NC(=O)[C@H](C)NC(=O)CNC(=O)[C@H](CC(N)=O)NC(=O)[C@H](CC(N)=O)NC(=O)CNC(=O)[C@H](Cc2c[nH]c3ccccc23)NC(=O)[C@H](Cc2ccc(O)cc2)NC(=O)[C@H](CC(=O)O)NC1=O (stereo not given in full) | Active | – | – | – | –
C/C=C(\NC(=O)[C@H](CC(N)=O)NC(=O)/C(=C/C)NC(=O)[C@H]1CSC[C@H](N)C(=O)N1)C(=O)N[C@@H](Cc1ccccc1)C(=O)N[C@H](C)C(=O)N[C@@H](CC(C)C)C(=O)N[C@@H]1CSC[C@@H](C(=O)N[C@H]2C(=O)N[C@@H](CC(C)C)C(=O)N[C@H]3C(=O)N[C@@H](Cc4cnc[nH]4)C(=O)N[C@@H](CCC(=O)O)C(=O)N[C@@H](CS[C@H]2C)C(=O)N[C@@H](CCSC)C(=O)N[C@@H](C)C(=O)N[C@@H](Cc2c[nH]c4ccccc24)C(=O)N[C@H](C(=O)N[C@@H](CCCCN)C(=O)O)CS[C@H]3C)NC(=O)[C@H](Cc2c[nH]c3ccccc23)NC(=O)[C@H](C)NC(=O)CNC(=O)[C@H](CC(N)=O)NC(=O)[C@H](CC(N)=O)NC(=O)CNC(=O)[C@H](Cc2c[nH]c3ccccc23)NC(=O)[C@H](Cc2ccc(O)cc2)NC(=O)[C@H](CC(=O)O)NC1=O | – | 2.3 | 16.6 | 12.7 | 2.5
